The values that follow come from patent US12448369B2 (Edgewise Therapeutics, Inc., priority 2023, dated 2025).

The subject of test [1] is Rabbit Psoas myofibrils (skeletal myosin ATPase). In words: Myofibril ATPase assay, rabbit psoas (skeletal) myofibrils. It is filed as biochemical. The settings on record: rabbit psoas myofibrils. In outline: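 Readout: A340 decline from NADH oxidation, PK/LDH-coupled to ADP release; kinetic reads over 75 min. Buffer: pCa (PIPES, CaCl2, EGTA), pH 7.0. Linear-regression slopes vs vehicle, 4PL fit; reported as concentration giving 75% (Y75) or 125% (Y125) of vehicle activity.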

In test [2] the test system is Porcine atria myofibrils (atrial myosin ATPase). In words: Myofibril ATPase assay, porcine atria myofibrils. Type of test: biochemical. The settings on record: porcine atria myofibrils. The method in brief: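 Coupled PK-LDH readout, NADH loss at 340 nm, kinetic 75 min. Porcine atria myofibrils, pCa buffer (PIPES/CaCl2/EGTA, pH 7.0). Slopes (mAU/min) normalized to vehicle = 100%, 4-parameter fit; Y75 or Y125 reported.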

The target in test [3] is T1, Porcine ventricle myofibrils (ventricular myosin ATPase) (Sus scrofa, UniProt P79293).
T1 construct: Myofibrils from porcine cardiac muscle was isolated from the left ventricle of Yucatan minipigs; tissue Exemplar Genetics; host or cells: left ventricle of Yucatan minipigs, myofibrils prepared in house
The test is described as follows: Myofibril ATPase assay, porcine ventricle myofibrils. It is filed as biochemical, porcine (Yucatan minipigs). As to conditions: porcine ventricle myofibrils. In outline:
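ATPase activity of porcine left-ventricular myofibrils is tracked as the slope of NADH loss at 340 nm through a PK/LDH couple. Values are the concentrations that bring activity to 75% (inhibitors) or 125% (activators) of vehicle.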

The mark [4] stands for this setting: Y75 value (75% activity relative to no compound).
Setting [5] is: ‡ Y125 value, not a Y75 value (125% activity relative to no compound).

T1 sequence (P79293 whole entry): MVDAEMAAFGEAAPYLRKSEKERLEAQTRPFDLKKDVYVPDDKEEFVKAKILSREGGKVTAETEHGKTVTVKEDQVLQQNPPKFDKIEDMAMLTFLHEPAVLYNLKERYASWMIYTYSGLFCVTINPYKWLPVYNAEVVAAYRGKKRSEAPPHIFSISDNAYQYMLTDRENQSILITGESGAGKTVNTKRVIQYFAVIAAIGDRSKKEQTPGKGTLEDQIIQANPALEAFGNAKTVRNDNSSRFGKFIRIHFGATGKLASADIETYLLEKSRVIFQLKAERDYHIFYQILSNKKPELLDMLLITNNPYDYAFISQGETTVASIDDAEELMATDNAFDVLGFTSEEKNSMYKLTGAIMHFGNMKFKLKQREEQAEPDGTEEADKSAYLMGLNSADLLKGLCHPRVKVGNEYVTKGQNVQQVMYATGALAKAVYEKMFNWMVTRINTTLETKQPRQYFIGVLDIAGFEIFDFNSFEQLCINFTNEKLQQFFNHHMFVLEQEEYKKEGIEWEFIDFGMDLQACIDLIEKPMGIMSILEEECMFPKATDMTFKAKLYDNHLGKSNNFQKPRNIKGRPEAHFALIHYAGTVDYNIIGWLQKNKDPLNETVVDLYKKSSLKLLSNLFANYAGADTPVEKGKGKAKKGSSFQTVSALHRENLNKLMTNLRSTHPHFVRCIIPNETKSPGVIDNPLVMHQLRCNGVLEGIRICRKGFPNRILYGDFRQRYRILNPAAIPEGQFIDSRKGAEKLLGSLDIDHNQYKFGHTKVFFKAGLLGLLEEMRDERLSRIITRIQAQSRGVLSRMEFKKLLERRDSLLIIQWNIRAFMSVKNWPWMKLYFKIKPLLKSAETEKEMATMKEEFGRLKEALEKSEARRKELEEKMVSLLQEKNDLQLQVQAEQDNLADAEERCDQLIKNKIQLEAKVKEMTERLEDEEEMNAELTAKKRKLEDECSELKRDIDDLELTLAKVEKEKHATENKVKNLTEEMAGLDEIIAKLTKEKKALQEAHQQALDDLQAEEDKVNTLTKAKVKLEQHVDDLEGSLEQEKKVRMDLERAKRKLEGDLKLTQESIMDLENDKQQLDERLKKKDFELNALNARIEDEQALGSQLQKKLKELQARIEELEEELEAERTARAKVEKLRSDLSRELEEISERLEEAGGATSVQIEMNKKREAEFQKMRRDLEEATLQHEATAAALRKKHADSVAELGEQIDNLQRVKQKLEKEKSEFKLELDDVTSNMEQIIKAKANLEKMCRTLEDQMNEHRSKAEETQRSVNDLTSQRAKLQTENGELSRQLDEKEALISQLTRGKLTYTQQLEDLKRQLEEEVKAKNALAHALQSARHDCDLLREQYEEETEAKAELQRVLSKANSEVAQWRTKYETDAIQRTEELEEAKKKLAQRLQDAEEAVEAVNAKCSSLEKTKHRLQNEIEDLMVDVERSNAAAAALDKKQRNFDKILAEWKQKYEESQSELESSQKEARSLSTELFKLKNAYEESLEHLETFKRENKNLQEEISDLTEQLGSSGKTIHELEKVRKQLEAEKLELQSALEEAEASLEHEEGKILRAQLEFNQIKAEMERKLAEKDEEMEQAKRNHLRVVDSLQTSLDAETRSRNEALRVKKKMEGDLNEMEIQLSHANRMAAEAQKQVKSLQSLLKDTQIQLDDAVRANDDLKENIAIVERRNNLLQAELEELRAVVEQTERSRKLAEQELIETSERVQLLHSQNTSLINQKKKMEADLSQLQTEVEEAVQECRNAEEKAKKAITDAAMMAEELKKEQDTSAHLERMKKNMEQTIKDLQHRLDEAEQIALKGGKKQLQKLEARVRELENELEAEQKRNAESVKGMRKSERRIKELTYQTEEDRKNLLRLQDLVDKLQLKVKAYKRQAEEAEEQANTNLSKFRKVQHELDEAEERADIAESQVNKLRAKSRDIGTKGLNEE

As to `C[C@H](NC(=O)Cc1c(C2CC2)c2cnccc2[nH]c1=O)c1ncc(C#N)cc1F` [compound 143], the “Skeletal EC25” value in test [1] (Y75 value) amounted to 0.61 µM. For the same molecule, the “Atrial EC25” value in test [2] (setting [4]) stood at 0.96 µM. Moreover, the “Ventricular EC25” value in test [3] (Y75 value) came to 6.56 µM.
In the case of `Cc1nc(C#N)ccc1[C@H](C)NC(=O)Cc1c(C)c2c(C)c(F)ccc2[nH]c1=O` (single isomer, unassigned) [compound 2079], in test [1] (Y75 value (no ‡ mark)), the “Skeletal EC25” value was found to be 0.03 µM. Besides, the “Atrial EC25” value in test [2] (Y75 value (no ‡ mark)) amounted to 0.13 µM. Also, the “Ventricular EC25” value in test [3] (Y75 value (no ‡ mark)) is 0.07 µM.
In the case of `Cc1nccc2[nH]c(=O)c(CC(=O)N[C@@H](C)c3cccc(O)n3)c(C)c12` (single isomer, unassigned) [compound 298], the “Skeletal EC25” value in test [1] (Y75 value) is 100.00 µM. For the same molecule, the “Atrial EC25” value in test [2] (setting [4]) was determined as 100.00 µM. Also, the “Ventricular EC25” value in test [3] (Y75 value) was found to be 100.00 µM.
With `C[C@H](NC(=O)[C@H](C)c1cc2c(C#N)nccc2[nH]c1=O)c1ccc(F)cc1F` (single isomer, unassigned) [compound 360], in test [1] (Y75 value), the “Skeletal EC25” value is 0.05 µM. Also, the “Atrial EC25” value in test [2] (setting [4]) is 100.00 µM. In addition, the “Ventricular EC25” value in test [3] (Y75 value) is 100.00 µM.
In the case of `Cc1c(C2(C(=O)N[C@@H](C)c3ncc(C#N)cc3F)CC2)c(=O)[nH]c2ccc(F)c(C(F)(F)F)c12` (single isomer, unassigned) [compound 4802], the “Skeletal EC25” value in test [1] (Y75 value (no ‡ mark)) is 0.14 µM. The “Atrial EC25” value in test [2] (Y75 value (no ‡ mark)) stood at 0.20 µM. Moreover, the “Ventricular EC25” value in test [3] (Y75 value (no ‡ mark)) worked out at 1.00 µM.
On to `Cc1c(CC(=O)N[C@@H](C)c2ncc(F)cc2F)c(=O)[nH]c2ccnc(C#N)c12` (single isomer, unassigned) [compound 305], for which the “Skeletal EC25” value in test [1] (Y75 value) is 0.02 µM. In test [2] (setting [4]), the “Atrial EC25” value is 0.07 µM. Also, the “Ventricular EC25” value in test [3] (Y75 value) amounted to 0.57 µM.
Regarding `C[C@H](NC(=O)C1(c2cc3cc(F)ccc3[nH]c2=O)CC1)c1cc(C#N)ccn1` (single isomer, unassigned) [compound 2537], in test [1] (setting [5]), the “Skeletal EC25” value is given as 100.00‡ μM. In addition, the “Atrial EC25” value in test [2] (Y75 value (no ‡ mark)) came to 100.00 µM. Also, in test [3] (setting [5]), the “Ventricular EC25” value was 100.00‡ μM.
`CCc1nccc2[nH]c(=O)c(CC(=O)N[C@@H](C)c3ccc(F)cc3F)cc12` [compound 437]: the “Skeletal EC25” value in test [1] (Y75 value) came out at 1.28 µM. In test [2] (setting [4]), the “Atrial EC25” value was determined as 91.43 µM. Also, the “Ventricular EC25” value in test [3] (Y75 value) is 100.00 µM.
As for `Cc1nc(C#N)ncc1[C@@H](C)NC(=O)Cc1c(C)c2c(F)c(F)ccc2[nH]c1=O` [compound 1131], the “Skeletal EC25” value in test [1] (Y75 value (no ‡ mark)) is 0.53 µM. For the same molecule, in test [2] (Y75 value (no ‡ mark)), the “Atrial EC25” value turned out to be 0.35 µM. The “Ventricular EC25” value in test [3] (Y75 value (no ‡ mark)) turned out to be 0.89 µM.
In the case of `Cc1nc(C#N)cnc1[C@@H](C)NC(=O)Cc1c(C)c2nc(C(F)(F)F)ccc2[nH]c1=O` (single isomer, unassigned) [compound 138], the “Skeletal EC25” value in test [1] (Y75 value) amounted to 2.85 µM. In addition, in test [2] (setting [4]), the “Atrial EC25” value came out at 0.35 µM. Also, the “Ventricular EC25” value in test [3] (Y75 value) came to 1.17 µM.
In the case of `Cc1c(C(F)(F)C(=O)N[C@H](C)c2nccc(C#N)n2)c(=O)[nH]c2ccc(F)cc12` (single isomer, unassigned) [compound 2527], the “Skeletal EC25” value in test [1] (setting [5]) is reported as 100.00‡ μM. Further, the “Atrial EC25” value in test [2] (Y75 value (no ‡ mark)) was 4.73 µM. Besides, in test [3] (Y75 value (no ‡ mark)), the “Ventricular EC25” value was found to be 100.00 µM.
Regarding `Cc1c(CC(=O)N[C@H](C)c2ncc(C#N)cn2)c(=O)[nH]c2ccc(F)c(C#N)c12` (single isomer, unassigned) [compound 2015], the “Skeletal EC25” value in test [1] (Y75 value (no ‡ mark)) was 0.15 µM. Also, the “Atrial EC25” value in test [2] (Y75 value (no ‡ mark)) stood at 0.49 µM. In test [3] (Y75 value (no ‡ mark)), the “Ventricular EC25” value was 1.45 µM.
In the case of `Cc1c(C(F)(F)C(=O)N[C@@H](C)c2ccc(F)cc2F)c(=O)[nH]c2ccc(F)cc12` [compound 4816], in test [1] (Y75 value (no ‡ mark)), the “Skeletal EC25” value was determined as 0.15 µM. For the same molecule, the “Atrial EC25” value in test [2] (Y75 value (no ‡ mark)) was determined as 0.15 µM. Moreover, in test [3] (Y75 value (no ‡ mark)), the “Ventricular EC25” value came out at 0.26 µM.
For `C[C@@H](NC(=O)Cc1cc2cc(F)c(F)cc2[nH]c1=O)c1cnc(C#N)nc1` [compound 1074], the “Skeletal EC25” value in test [1] (Y75 value (no ‡ mark)) came out at 100.00 µM. In test [2] (Y75 value (no ‡ mark)), the “Atrial EC25” value was 100.00 µM. Further, the “Ventricular EC25” value in test [3] (Y75 value (no ‡ mark)) came out at 100.00 µM.
Take `Cc1c(CC(=O)N[C@H](C)c2ccc(C#N)nn2)c(=O)[nH]c2ccc(F)c(F)c12` [compound 1133]: in test [1] (Y75 value (no ‡ mark)), the “Skeletal EC25” value was 0.04 µM. For the same molecule, the “Atrial EC25” value in test [2] (Y75 value (no ‡ mark)) stood at 0.09 µM. Besides, the “Ventricular EC25” value in test [3] (Y75 value (no ‡ mark)) is 0.14 µM.
On to `Cc1nccc2[nH]c(=O)c(C(F)(F)C(=O)N[C@H](C)c3ccc(C#N)cc3F)c(C)c12` (single isomer, unassigned) [compound 3511], for which the “Skeletal EC25” value in test [1] (Y75 value) was 0.26 µM. Also, in test [2] (setting [4]), the “Atrial EC25” value is 0.56 µM. In test [3] (Y75 value), the “Ventricular EC25” value came to 2.65 µM.
As for `Cc1c(C2(C(=O)N[C@@H]3CCc4cc(C#N)cnc43)CC2)c(=O)[nH]c2ccc(F)c(F)c12` (single isomer, unassigned) [compound 4803], in test [1] (Y75 value (no ‡ mark)), the “Skeletal EC25” value came to 0.27 µM. Besides, the “Atrial EC25” value in test [2] (Y75 value (no ‡ mark)) turned out to be 100.00 µM. In test [3] (Y75 value (no ‡ mark)), the “Ventricular EC25” value was found to be 100.00 µM.
For `C[C@@H](NC(=O)Cc1cc2cc(F)ccc2[nH]c1=O)c1ccc(C#N)cn1` [compound 1125], in test [1] (Y75 value (no ‡ mark)), the “Skeletal EC25” value was determined as 100.00 µM. Moreover, the “Atrial EC25” value in test [2] (Y75 value (no ‡ mark)) was 18.28 µM. Also, the “Ventricular EC25” value in test [3] (Y75 value (no ‡ mark)) is 100.00 µM.
As for `Cc1nc(C#N)cnc1[C@@H](C)NC(=O)C1(c2cc3c(F)c(F)ccc3[nH]c2=O)CC1` (single isomer, unassigned) [compound 4825], the “Skeletal EC25” value in test [1] (Y75 value (no ‡ mark)) is 100.00 µM. In addition, the “Atrial EC25” value in test [2] (Y75 value (no ‡ mark)) worked out at 0.43 µM. The “Ventricular EC25” value in test [3] (Y75 value (no ‡ mark)) was determined as 100.00 µM.
Regarding `Cc1c(CC(=O)N[C@H](C)c2ncc(C#N)cn2)c(=O)[nH]c2ccc(C#N)cc12` (single isomer, unassigned) [compound 2027], the “Skeletal EC25” value in test [1] (Y75 value (no ‡ mark)) was 41.80 µM. Moreover, in test [2] (Y75 value (no ‡ mark)), the “Atrial EC25” value came to 1.48 µM. Besides, the “Ventricular EC25” value in test [3] (Y75 value (no ‡ mark)) amounted to 100.00 µM.
On to `Cc1c(C(F)(F)C(=O)N[C@H](C)c2ccc(C#N)nn2)c(=O)[nH]c2ccc(F)cc12` (single isomer, unassigned) [compound 2555], for which, in test [1] (Y75 value (no ‡ mark)), the “Skeletal EC25” value was 0.80 µM. In addition, the “Atrial EC25” value in test [2] (Y75 value (no ‡ mark)) came to 3.65 µM. Moreover, the “Ventricular EC25” value in test [3] (Y75 value (no ‡ mark)) amounted to 6.70 µM.
For `Cc1c(CC(=O)N[C@H]2c3c(F)cc(F)cc3OC2(C)C)c(=O)[nH]c2ccnc(C#N)c12` (single isomer, unassigned) [compound 187], the “Skeletal EC25” value in test [1] (Y75 value) was 0.05 µM. Moreover, the “Atrial EC25” value in test [2] (setting [4]) worked out at 0.11 µM. Further, in test [3] (Y75 value), the “Ventricular EC25” value came out at 1.36 µM.
In the case of `Cc1c(O)ccc2[nH]c(=O)c(CC(=O)N[C@H](C)c3ncc(F)cc3F)cc12` (single isomer, unassigned) [compound 77], the “Skeletal EC25” value in test [1] (Y75 value (no ‡ mark)) was determined as 47.84 µM. The “Atrial EC25” value in test [2] (Y75 value (no ‡ mark)) worked out at 100.00 µM. Besides, the “Ventricular EC25” value in test [3] (Y75 value (no ‡ mark)) amounted to 100.00 µM.
For `Cc1nccc2[nH]c(=O)c(C3(C(=O)N[C@H](C)c4ccc(C#N)cc4F)CC3)c(C)c12` (single isomer, unassigned) [compound 3516], in test [1] (Y75 value), the “Skeletal EC25” value turned out to be 0.24 µM. The “Atrial EC25” value in test [2] (setting [4]) was determined as 0.51 µM. For the same molecule, the “Ventricular EC25” value in test [3] (Y75 value) came out at 1.49 µM.
Turning to `Cc1c([C@@H](C)C(=O)N[C@@H](C)c2ccc(F)cc2F)c(=O)[nH]c2ccc(C(F)(F)F)nc12` (single isomer, unassigned) [compound 370], the “Skeletal EC25” value in test [1] (Y75 value) was 0.51 µM. The “Atrial EC25” value in test [2] (setting [4]) is 0.06 µM. For the same molecule, the “Ventricular EC25” value in test [3] (Y75 value) is 48.16 µM.
